The assay has as its system M. tuberculosis H37Rv-GFP. In words: microbe, parasite or virus in culture. The format is cell-based, Mycobacterium tuberculosis. As to conditions: Mycobacterium tuberculosis, H37RV; for inhibition at 20 µM: Macrophage.
The mark [1] stands for this setting: confirmation, 20 uM, intracellular, read-out: QIM Confirm % Inhibition 20 uM.
[2] abbreviates: primary screen, 20 μM, intracellular, read-out: Primary QIM % Inhibition.
[3] abbreviates: read-out: Primary QIM % Inhibition.
Setting [4] is: read-out: QIM Confirm % Inhibition 20 uM.

≈ marks a conversion by molar mass, not a printed value. Where two headings read alike, the source gives them in different places.

`CC(=O)COc1c([N+](=O)[O-])ccc(F)c1F` [IPK 000 259 78]: the inhibition at 20 µM amounted to 58.8% under setting [1] and 4.9% under setting [2].
For `CCCCOC(=O)c1cc([N+](=O)[O-])c(Sc2nc3ccccc3[nH]2)c([N+](=O)[O-])c1` [IPK 000 141 58], the inhibition at 20 µM runs as follows: under setting [3], 58.2%; under setting [4], 59.2%.
For `Cc1ccc2nc(-c3ccc(NC(=O)CN4CCCC4)cc3)sc2c1` [IPK 000 125 61], the inhibition at 20 µM stood at 85.8% under setting [1] and 44.1% under setting [2].
As to `O=C(Nc1ccc(F)cc1)Nc1ccc(C(F)(F)F)cc1` [IPK 000 147 17], the inhibition at 20 µM runs as follows: under setting [1], 40.8%; under setting [2], 11.9%.
On to `O=C(O)c1cccc2c1NC(c1ccccc1[N+](=O)[O-])C1Cc3ccccc3C21` (centres unmarked) [IPK 000 241 72], for which the inhibition at 20 µM by setting is: under setting [1], 28%; under setting [2], -43.3%.
In the case of `CCc1cccc(NC(=O)c2cccs2)c1` [IPK 000 257 61], the inhibition at 20 µM amounted to 79.9% under setting [1] and 71.5% under setting [2].
In the case of `CCCCNC(=O)c1ccc2c(c1)OCO2` [IPK 000 208 53], the inhibition at 20 µM under setting [1] was found to be 23.3% and the inhibition at 20 µM under setting [2] was found to be 71.6%.
Regarding `CC(C)(C)c1ccc(O)c(C(=O)Oc2ccccc2)c1` [IPK 000 143 45], the inhibition at 20 µM is 83.5% under setting [1] and 81.2% under setting [2].
With `CC(C)CNC(=O)c1cc([N+](=O)[O-])cc([N+](=O)[O-])c1` [IPK 000 046 78], the inhibition at 20 µM worked out at 73.3% under setting [3] and 88.9% under setting [4].
For `O=[N+]([O-])c1ccc(NNc2ccccc2)c([N+](=O)[O-])c1` [IPK 000 171 46] the same measures were 24.3% and 72.1%.
Consider `C=CCc1ccc(OCC(=O)N/N=C/c2ccc([N+](=O)[O-])o2)c(OC)c1` [IPK 000 148 44], for which the inhibition at 20 µM by setting is: under setting [1], 8.2%; under setting [2], -15.1%.
The corresponding values for `Cc1cccc(C(=O)NCCC(C)C)c1` [IPK 000 210 74] are 20.2% and 76.4%.
As to `COc1cccc(C(CC(=O)c2ccc(Cl)cc2)C(C#N)C#N)c1` (centres unmarked) [IPK 000 130 54], the inhibition at 20 µM under setting [1] turned out to be 65.8% and the inhibition at 20 µM under setting [2] worked out at 66.7%.
For `CSc1ccc(/C=N/Nc2nc(-c3ccc(NC(=O)CCC(=O)O)cc3)cs2)cc1` [IPK 000 262 07] the same measures were 7.9% and 80.3%.
Consider `Cc1ccc(NC(=O)c2ccc(CSc3ccccn3)cc2)c(C)c1` [IPK 000 125 22], for which the inhibition at 20 µM is 82% under setting [1] and 75.4% under setting [2].
The corresponding values for `O=[N+]([O-])c1ccc(O)c(-c2cc(C(F)(F)C(F)F)[nH]n2)c1` [IPK 000 164 52] are 80% and 64.7%.
In the case of `O=C(Oc1cccc2cccnc12)c1ccccc1` [IPK 000 251 49], the inhibition at 20 µM under setting [3] worked out at 27% and the inhibition at 20 µM under setting [4] is 15%.
With `COc1ccc(/C=N/NC(=O)c2ccncc2)cc1` [IPK 000 219 28], the inhibition at 20 µM reads like this: under setting [1], 46.2%; under setting [2], 106%.
Turning to `CO[C@H]1/C=C/O[C@@]2(C)Oc3c(C)c(O)c4c(O)c(c(/C=N/N5CCN(C)CC5)c(O)c4c3C2=O)NC(=O)/C(C)=C\C=C\[C@H](C)[C@H](O)[C@@H](C)[C@@H](O)[C@@H](C)[C@H](OC(C)=O)[C@@H]1C` [rifampin, reference compound], the MIC (120 h, read-out: minimal inhibitory concentration (MIC)) was 2.4 µg/mL (≈ 2.92 µM).
On to `O=C(Nc1ccc(NC(=O)c2cccnc2)cc1)C1=CCCS1` [IPK 000 199 70], for which the inhibition at 20 µM worked out at 69.6% under setting [1] and 70.5% under setting [2].
For `Oc1ccccc1/N=C/c1ccc(OCc2ccccc2)cc1` [IPK 000 169 86] the same measures were 13% and 0.5%.
For `OC1CCCc2c1[nH]c1ccc(Br)cc21` (centres unmarked) [IPK 000 180 76], the inhibition at 20 µM under setting [1] is 92.1% and the inhibition at 20 µM under setting [2] worked out at 70.6%.
Take `O=[N+]([O-])c1ccc(CSc2nnnn2C2CCCCC2)cc1` [IPK 000 258 07]: the inhibition at 20 µM was 72.7% under setting [1] and 49.9% under setting [2].
The corresponding values for `NC(=O)c1ccccc1/N=C/c1ccc([N+](=O)[O-])o1` [IPK 000 175 27] are 25.8% and -69.7%.
For the molecule `CCOc1ccc(NCCCCO)cc1` [IPK 000 172 54], the inhibition at 20 µM is, setting by setting: under setting [1], 40.4%; under setting [2], 4.1%.
The corresponding values for `CC(C)CCNC(=O)c1cccc(Cl)c1` [IPK 000 210 79] are 28.7% and 77.2%.
For the molecule `Cc1c(Cl)cccc1/N=C/c1ccc([N+](=O)[O-])o1` [IPK 000 167 54], the inhibition at 20 µM under setting [1] turned out to be 16.5% and the inhibition at 20 µM under setting [2] is 19.5%.
The corresponding values for `CC1=NN(C(N)=S)C(=O)/C1=N/Nc1ccccc1C` [IPK 000 168 32] are 81.9% and 75.7%.
For the molecule `CCOc1ccc(NCC(=O)n2nc(C)cc2C)cc1` [IPK 000 234 61], the inhibition at 20 µM runs as follows: under setting [1], -1.6%; under setting [2], -61%.
As to `O=C(COc1ccc(-c2ccccc2)cc1)Nc1nc2ccccc2s1` [IPK 000 142 17], the inhibition at 20 µM under setting [3] was 84.3% and the inhibition at 20 µM under setting [4] was found to be 82.3%.
For `Cc1ccsc1/C=C1/SC(N2CCCCC2)=NC1=O` [IPK 000 129 72], the inhibition at 20 µM under setting [1] was 75.4% and the inhibition at 20 µM under setting [2] is 61.8%.
For `O=C(c1cc([N+](=O)[O-])cc([N+](=O)[O-])c1)N1CCc2ccccc2C1` [IPK 000 046 86], the inhibition at 20 µM reads like this: under setting [3], 26.6%; under setting [4], 40.8%.
In the case of `Cc1ccc(-c2c(CN3CCCCC3)c(N)nc3ccccc23)cc1` [IPK 000 222 00], the inhibition at 20 µM is 86.2% under setting [1] and 74.4% under setting [2].
Consider `CC(NC(=O)c1cc([N+](=O)[O-])cc([N+](=O)[O-])c1)c1ccccc1` (centres unmarked) [IPK 000 046 80], for which the inhibition at 20 µM was 76.9% under setting [3] and 64.6% under setting [4].
For the molecule `CCc1ccc(NC(=O)C23CC4CC(CC(C4)C2)C3)cc1` [IPK 000 228 46], the inhibition at 20 µM runs as follows: under setting [1], 37.8%; under setting [2], 22.5%.
The corresponding values for `CCOC(=O)c1sc(NC(=O)CCCc2ccccc2)nc1C` [IPK 000 254 25] are 18.5% and 32.5%.
In the case of `CC1=NN(C(N)=S)C(=O)/C1=N/Nc1ccc(O)cc1` [IPK 000 171 84], the inhibition at 20 µM is, setting by setting: under setting [1], 13.3%; under setting [2], -79.6%.
In the case of `O=[N+]([O-])c1cc(-c2nnc(-c3ccccc3)o2)cc([N+](=O)[O-])c1` [IPK 000 150 85], the inhibition at 20 µM is 72.3% under setting [3] and 72.2% under setting [4].
As for `COc1ccc(/C=N/Nc2nc(-c3ccc(NC(C)=O)cc3)cs2)cc1` [IPK 000 163 52], the inhibition at 20 µM stood at 70.7% under setting [1] and 86.2% under setting [2].
For `CSc1ccc(/C=N/Nc2nc(-c3ccc(NC(C)=O)cc3)cs2)cc1` [IPK 000 163 67] the same measures were 99.5% and 68.1%.
For `CCc1ccc(C2(O)CC(C(F)(F)F)=NN2C(=O)c2ccncc2)cc1` (centres unmarked) [IPK 000 134 51], the inhibition at 20 µM reads like this: under setting [1], 102%; under setting [2], 90.2%.
On to `O=C(NC1CCCCCC1)c1cc([N+](=O)[O-])cc([N+](=O)[O-])c1` [IPK 000 046 83], for which the inhibition at 20 µM stood at 75.8% under setting [3] and 61.7% under setting [4].

One may read the inhibition as the drop in the measured response relative to a control, in per cent.

These data come from patent US8785452B2, “Anti-infective compounds” (priority 2008, dated 2014).
